Molecules are shown by their SMILES.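 Tested at 5 concentrations; 48 h exposure; 96-well plates; endpoints linearly interpolated, else capped at highest concentration. TGI: total growth inhibition.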

Some test systems named below: NCI-H226 lung; NCI-H460 lung; ACHN renal; SK-MEL-28 melanoma; A549 NSCLC; U251 CNS; KM12 colon; HCT-116 colon; SF-295 CNS; SF-539 CNS; PC-3 prostate; UO-31 renal; NCI/ADR-RES ovarian; SF-268 CNS; DU-145 prostate; OVCAR-8 ovarian; SNB-75 CNS; NCI-H522 lung; OVCAR-3 ovarian; CAKI-1 renal.
Assay in all cases: NCI-60 cell line screen, 48 h

Consider `COC(=O)CCc1ccc2c(c1)CC1(C2)Cc2ccc3c(c2C1)CCC3` (centres undefined), for which the TGI in the assay with NCI-H226 lung, in the assay on NCI-H460 lung, in the assay with ACHN renal, in the assay with SK-MEL-28 melanoma, in the assay with A549 NSCLC and in the assay on U251 CNS was over 100 µM in each case. In addition, the TGI with KM12 colon is over 100 µM; in the assay with HCT-116 colon, over 100 µM; in the assay on SF-295 CNS, over 100 µM; with SF-539 CNS it was over 100 µM; in the assay with PC-3 prostate it was over 100 µM; in the assay on UO-31 renal it was 67.5 µM. For the same compound, the TGI in the assay on NCI/ADR-RES ovarian, in the assay with SF-268 CNS, in the assay with DU-145 prostate, in the assay on OVCAR-8 ovarian, with SNB-75 CNS and with NCI-H522 lung was over 100 µM throughout. In addition, the TGI with OVCAR-3 ovarian was over 100 µM.
Take `CC(=O)O/C=C\OC1CCCC1`: the TGI in the assay with NCI-H226 lung, with NCI-H460 lung, in the assay with ACHN renal, with SK-MEL-28 melanoma, with A549 NSCLC and in the assay with U251 CNS was over 100 µM throughout. Besides, the TGI with KM12 colon, in the assay on SF-295 CNS, in the assay with SF-539 CNS, with PC-3 prostate, in the assay with UO-31 renal and with NCI/ADR-RES ovarian was over 100 µM in each case. For the same compound, the TGI in the assay with SF-268 CNS, with DU-145 prostate, in the assay with CAKI-1 renal, in the assay with OVCAR-8 ovarian, in the assay with SNB-75 CNS and in the assay with NCI-H522 lung was over 100 µM in each case. Also, the TGI in the assay with OVCAR-3 ovarian is over 100 µM.
For the compound `COc1ccc2c(c1)CC[C@@H]1[C@@H]2CC[C@]2(C)[C@@H](O)/C(=C/c3ccncc3)C[C@@H]12`, the TGI in the assay on NCI-H226 lung amounted to 44.7 µM; with NCI-H460 lung, 27.3 µM; in the assay on ACHN renal it was 67.2 µM; in the assay with SK-MEL-28 melanoma it was 35.5 µM; in the assay with A549 NSCLC it was 41.1 µM; in the assay with U251 CNS it was 25.1 µM. Also, the TGI in the assay with KM12 colon is 31.4 µM; in the assay on HCT-116 colon, 30 µM; with SF-295 CNS, 29.4 µM; in the assay with PC-3 prostate it was 25.5 µM; in the assay on UO-31 renal, 31.5 µM; with NCI/ADR-RES ovarian it was 37.2 µM. The TGI with SF-268 CNS was 28.2 µM; in the assay on DU-145 prostate it was 41 µM; in the assay on CAKI-1 renal, 34.2 µM; with OVCAR-8 ovarian, 28.2 µM; in the assay on SNB-75 CNS, 39.8 µM; in the assay with NCI-H522 lung, 30.6 µM. The same compound came in with a TGI in the assay with OVCAR-3 ovarian of 39.3 µM.
In the case of `CCOC(=O)CCC(NC(=O)c1ccc(Oc2nc3ccccc3nc2C(=O)OCC)cc1)C(=O)OCC` (centres undefined), the TGI with NCI-H460 lung, with ACHN renal, in the assay on SK-MEL-28 melanoma, in the assay on A549 NSCLC, in the assay with U251 CNS and in the assay on KM12 colon was over 100 µM each time. Besides, the TGI in the assay on HCT-116 colon, in the assay with SF-295 CNS, with SF-539 CNS, in the assay on PC-3 prostate, in the assay with UO-31 renal and in the assay on NCI/ADR-RES ovarian was over 100 µM each time. For the same compound, the TGI was over 100 µM in the assay on SF-268 CNS; over 100 µM in the assay on DU-145 prostate; over 100 µM in the assay on CAKI-1 renal; over 100 µM in the assay with OVCAR-8 ovarian; 98.1 µM with SNB-75 CNS; over 100 µM in the assay on NCI-H522 lung. In the assay on OVCAR-3 ovarian, this compound showed a TGI of over 100 µM.
As to `COc1ccc(Nc2nc3ccccc3nc2C(=O)O)cc1`, the TGI in the assay with NCI-H460 lung, in the assay on ACHN renal, with SK-MEL-28 melanoma, in the assay with A549 NSCLC, in the assay with U251 CNS and in the assay with KM12 colon was over 100 µM throughout. For the same compound, the TGI with HCT-116 colon, with SF-295 CNS, in the assay with SF-539 CNS, in the assay on PC-3 prostate, with UO-31 renal and in the assay on NCI/ADR-RES ovarian was over 100 µM each time. Also, the TGI with SF-268 CNS, in the assay on DU-145 prostate, in the assay on CAKI-1 renal, in the assay with OVCAR-8 ovarian, in the assay with SNB-75 CNS and in the assay with NCI-H522 lung was over 100 µM in each case. This compound returned a TGI with OVCAR-3 ovarian of over 100 µM.
Regarding `N#CC(c1ccccc1)(c1ccccc1)[C@@H](c1ccccc1)[C@H](Cc1ccccc1)NS(=O)(=O)c1ccccc1`, the TGI in the assay with NCI-H460 lung, in the assay on ACHN renal, with SK-MEL-28 melanoma, with A549 NSCLC, with U251 CNS and with KM12 colon was over 100 µM each time. Also, the TGI with HCT-116 colon, in the assay with SF-295 CNS, in the assay on SF-539 CNS, in the assay on PC-3 prostate, in the assay with UO-31 renal and in the assay with NCI/ADR-RES ovarian was over 100 µM throughout. Further, the TGI in the assay with SF-268 CNS, with DU-145 prostate, with CAKI-1 renal, with OVCAR-8 ovarian, in the assay with SNB-75 CNS and in the assay on NCI-H522 lung was over 100 µM in each case. The compound also gave a TGI in the assay on OVCAR-3 ovarian of over 100 µM.

The record behind these values is PubChem BioAssay (NCI).
